Results: patent publication US10875874B2, “Ginkgolide B derivative and preparation method and use thereof” (Chengdu Baiyu Ginkgolide Pharmaceuticals Co., Ltd., priority 2015, dated 2020)
Converted amounts (≈) assume the structure as drawn. Marks after values point to notes of the source that are not given here.

Assays:
[1] = tested on: spontaneously hypertensive rats (SHR); test: Caudal artery systolic pressure of spontaneously hypertensive rats, 8 weeks of continuous medication; assay type: in vivo, rat; conditions: x ± s, n = 8
In short: (§1)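 SHR rats of both sexes (200–250 g, 8/group) dosed intragastrically with 60 or 120 mg/kg/d, or captopril 27 mg/kg, once daily for 8 weeks; Wistar rats and vehicle SHR served as controls. Tail-cuff systolic pressure taken as the mean of 3 readings, measured before dosing and 30–120 min after the first dose, or 30 min post-dose on days 1–56 for chronic treatment.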

[2] = Weekly body weight of SHR rats; assay type: in vivo, rat
In short: (§2)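 Male and female SHR rats (200-250 g, 8/group) dosed intragastrically once daily for 8 weeks with test compounds at 60 or 120 mg/kg/d or captopril 27 mg/kg; Wistar and SHR controls received distilled water. Body weight and food intake observed during treatment.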

[3] = tested on: spontaneously hypertensive rats (SHR); test: Caudal artery systolic pressure of spontaneously hypertensive rats, single administration; assay type: in vivo, rat; conditions: x ± s, n = 8
In short: as §1

[4] = Weekly food intake of SHR rats; assay type: in vivo, rat
In short: as §2

physchem = conditions: water, thermodynamic from solid
Procedure: Measuring method: samples are ground to obtain fine powder, target compounds are quantitatively weighed, the weighed compounds are added into purified water, and the solubility of the compounds is investigated by ultrasonics.

[5] = 60 mg/kg/d intragastric, week 0
[6] = 60 mg/kg/d intragastric, week 1
[7] = 60 mg/kg/d intragastric, week 2
[8] = 60 mg/kg/d intragastric, week 3
[9] = 60 mg/kg/d intragastric, week 4
[10] = 60 mg/kg/d intragastric, week 5
[11] = 60 mg/kg/d intragastric, week 6
[12] = 60 mg/kg/d intragastric, week 7
[13] = 60 mg/kg/d intragastric, week 8
[14] = 120 mg/kg/d intragastric, week 0
[15] = 120 mg/kg/d intragastric, week 1
[16] = 120 mg/kg/d intragastric, week 2
[17] = 120 mg/kg/d intragastric, week 3
[18] = 120 mg/kg/d intragastric, week 4
[19] = 120 mg/kg/d intragastric, week 5
[20] = 120 mg/kg/d intragastric, week 6
[21] = 120 mg/kg/d intragastric, week 7
[22] = 120 mg/kg/d intragastric, week 8

In the case of `Cc1nc(C)c(CO[C@H]2C(=O)O[C@H]3O[C@]45C(=O)OC6C[C@@H](C(C)(C)C)C32[C@@]64[C@@H](O)[C@@H]2OC(=O)[C@@H](C)[C@@]25O)nc1C` (some centres unmarked) [BM], the Systolic pressure ([1]; 60 mg/kg/d intragastric continuous, 1 d, 30 min after administration) is reported as 155.25 ± 12.36 mmHg, the Systolic pressure ([1]; 60 mg/kg/d intragastric continuous, 7 d, 30 min after administration) is reported as 154.85 ± 10.49 mmHg and the Systolic pressure ([1]; 60 mg/kg/d intragastric continuous, 13 d, 30 min after administration) is reported as 153.26 ± 12.95 mmHg. The Systolic pressure ([1]; 60 mg/kg/d intragastric continuous, 19 d, 30 min after administration) was 156.74 ± 10.36 mmHg, the Systolic pressure ([1]; 60 mg/kg/d intragastric continuous, 25 d, 30 min after administration) was 154.75 ± 10.39 mmHg and the Systolic pressure ([1]; 60 mg/kg/d intragastric continuous, 35 d, 30 min after administration) was 151.48 ± 10.32 mmHg. It also gave a Systolic pressure ([1]; 60 mg/kg/d intragastric continuous, 49 d, 30 min after administration) of 151.17 ± 14.05 mmHg, a Systolic pressure ([1]; 60 mg/kg/d intragastric continuous, 56 d, 30 min after administration) of 154.64 ± 11.42 mmHg and a Systolic pressure ([1]; 60 mg/kg/d intragastric continuous, before administration) of 166.27 ± 14.01 mmHg. For the same compound, the Systolic pressure ([1]; 120 mg/kg/d intragastric continuous, 1 d, 30 min after administration) was 154.62 ± 5.74 mmHg, the Systolic pressure ([1]; 120 mg/kg/d intragastric continuous, 7 d, 30 min after administration) was 152.31 ± 10.56 mmHg and the Systolic pressure ([1]; 120 mg/kg/d intragastric continuous, 13 d, 30 min after administration) was 151.58 ± 12.06 mmHg. For the same compound, the Systolic pressure ([1]; 120 mg/kg/d intragastric continuous, 19 d, 30 min after administration) was 153.06 ± 10.41 mmHg, the Systolic pressure ([1]; 120 mg/kg/d intragastric continuous, 25 d, 30 min after administration) was 148.54 ± 11.62 mmHg and the Systolic pressure ([1]; 120 mg/kg/d intragastric continuous, 35 d, 30 min after administration) was 149.36 ± 10.75 mmHg. It also gave a Systolic pressure ([1]; 120 mg/kg/d intragastric continuous, 49 d, 30 min after administration) of 150.32 ± 9.59 mmHg, a Systolic pressure ([1]; 120 mg/kg/d intragastric continuous, 56 d, 30 min after administration) of 149.78 ± 11.64 mmHg and a Systolic pressure ([1]; 120 mg/kg/d intragastric continuous, before administration) of 163.45 ± 15.24 mmHg. For the same compound, the Body weight [2, 5] was 231.5 g, the Body weight [2, 6] was 236.8 g and the Body weight [2, 7] was 245.7^▴▴ g. The Body weight [2, 8] was 253.4 g, the Body weight [2, 9] was 258.3 g and the Body weight [2, 10] was 263.5^▴ g. For the same compound, the Body weight [2, 11] was 271.3^▴▴ g, the Body weight [2, 12] was 281.6^▴▴ g and the Body weight [2, 13] was 292.5^▴▴ g. The Body weight [2, 14] was 233.4 g, the Body weight [2, 15] was 249.5^▴▴ g and the Body weight [2, 16] was 256.8^▴▴ g. For the same compound, the Body weight [2, 17] was 264.3^▴▴ g, the Body weight [2, 18] was 271.6^▴▴ g and the Body weight [2, 19] was 280.4^▴▴ g. The Body weight [2, 20] was 290.5^▴▴ g, the Body weight [2, 21] was 305.7^▴▴ g and the Body weight [2, 22] was 315.8^▴▴ g. It also gave a Systolic pressure ([3]; 60 mg/kg intragastric single administration, 30 min) of 156.21 ± 9.68 mmHg, a Systolic pressure ([3]; 60 mg/kg intragastric single administration, 60 min) of 152.06 ± 9.78 mmHg and a Systolic pressure ([3]; 60 mg/kg intragastric single administration, 90 min) of 151.74 ± 13.15 mmHg. For the same compound, the Systolic pressure ([3]; 60 mg/kg intragastric single administration, 120 min) was 152.52 ± 15.06 mmHg, the Systolic pressure ([3]; 60 mg/kg intragastric single administration, before administration) was 166.27 ± 14.01 mmHg and the Systolic pressure ([3]; 120 mg/kg intragastric single administration, 30 min) was 149.04 ± 10.95 mmHg. The Systolic pressure ([3]; 120 mg/kg intragastric single administration, 60 min) was 151.58 ± 9.85 mmHg, the Systolic pressure ([3]; 120 mg/kg intragastric single administration, 90 min) was 153.65 ± 11.04 mmHg and the Systolic pressure ([3]; 120 mg/kg intragastric single administration, 120 min) was 151.00 ± 9.85 mmHg. For the same compound, the Systolic pressure ([3]; 120 mg/kg intragastric single administration, before administration) was 163.45 ± 15.24 mmHg, the “Average dairy food intake” value [4, 5] was 18.2 g/day and the “Average dairy food intake” value [4, 6] was 19.1^▴ g/d. The “Average dairy food intake” value [4, 7] was 19.9^▴ g/d, the “Average dairy food intake” value [4, 8] was 20.9^▴▴ g/d and the “Average dairy food intake” value [4, 9] was 21.3^▴▴ g/d. For the same compound, the “Average dairy food intake” value [4, 10] was 22.4^▴▴ g/d, the “Average dairy food intake” value [4, 11] was 23.1^▴▴ g/d and the “Average dairy food intake” value [4, 12] was 24.7^▴▴ g/d. The “Average dairy food intake” value [4, 13] was 25.5^▴▴ g/d, the “Average dairy food intake” value [4, 14] was 18.5 g/day and the “Average dairy food intake” value [4, 15] was 19.9^▴ g/d. For the same compound, the “Average dairy food intake” value [4, 16] was 20.7^▴▴ g/d, the “Average dairy food intake” value [4, 17] was 22.6^▴▴ g/d and the “Average dairy food intake” value [4, 18] was 22.9^▴▴ g/d. The “Average dairy food intake” value [4, 19] was 23.7^▴▴ g/d, the “Average dairy food intake” value [4, 20] was 24.4^▴▴ g/d and the “Average dairy food intake” value [4, 21] was 25.8^▴▴ g/d. For the same compound, the “Average dairy food intake” value [4, 22] was 27.6^▴▴ g/d and the solubility (physchem) was 250 µg/mL (≈ 448 µM).
